SMILES strings stand for the structures.

Drawing on BindingDB's records for doi:10.1016/j.bmcl.2004.09.053 (Avenida De La Industria, 2004), this text covers IC50 for three molecules.

Common to all, as to experiment: CDK Kinase Inhibition Assay
Assay [1] has as its target Cyclin-dependent kinase 2/G1/S-specific cyclin-E1 (Homo sapiens, UniProt P24941). The procedure: (§1) In vitro CDK assay using purified enzyme, was incubated at room temperature with substrate, and test compounds in the presence of ATP/[gamma-33P]ATP. 33P incorporation was measured with a Top Count (Packard). IC50 is the inhibitor concentration which inhibits 50% of kinase activity that catalyzes the transfer of the terminal phosphate from 33P labeled ATP to the substrate.

Assay [2] concerns the target Cyclin-dependent kinase 4/G1/S-specific cyclin-D1 (Homo sapiens, UniProt P11802). Conditions: 25 °C. The procedure: as §1
The target of assay [3] is Cyclin-dependent kinase/G2/mitotic-specific cyclin- 1 (Homo sapiens, UniProt P06493). Conditions: 25 °C. The procedure:
as §1

Sequence of Cyclin-dependent kinase/G2/mitotic-specific cyclin- 1 (P06493 whole entry): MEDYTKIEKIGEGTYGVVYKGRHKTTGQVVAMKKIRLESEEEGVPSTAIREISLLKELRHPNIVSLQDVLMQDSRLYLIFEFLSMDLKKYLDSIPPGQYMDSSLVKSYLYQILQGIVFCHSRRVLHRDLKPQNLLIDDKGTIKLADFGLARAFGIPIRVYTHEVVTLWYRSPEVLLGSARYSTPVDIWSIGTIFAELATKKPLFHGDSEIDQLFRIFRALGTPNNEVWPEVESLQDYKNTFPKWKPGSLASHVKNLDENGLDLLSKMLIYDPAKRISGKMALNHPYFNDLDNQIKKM
Sequence of Cyclin-dependent kinase/G2/mitotic-specific cyclin- 1 (P14635 whole entry, further chain): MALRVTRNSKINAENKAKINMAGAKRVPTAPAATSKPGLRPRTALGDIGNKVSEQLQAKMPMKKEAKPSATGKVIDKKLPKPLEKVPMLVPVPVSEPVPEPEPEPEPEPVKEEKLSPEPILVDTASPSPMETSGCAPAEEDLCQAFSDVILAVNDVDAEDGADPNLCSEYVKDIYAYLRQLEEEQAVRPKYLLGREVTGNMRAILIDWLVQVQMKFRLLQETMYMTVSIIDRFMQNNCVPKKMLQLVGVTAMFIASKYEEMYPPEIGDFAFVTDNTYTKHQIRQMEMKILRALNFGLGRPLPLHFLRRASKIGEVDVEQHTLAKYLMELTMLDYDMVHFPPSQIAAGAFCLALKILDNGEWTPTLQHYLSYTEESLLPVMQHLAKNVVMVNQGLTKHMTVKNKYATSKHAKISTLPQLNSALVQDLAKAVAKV
Sequence of Cyclin-dependent kinase 4/G1/S-specific cyclin-D1 (P11802 whole entry): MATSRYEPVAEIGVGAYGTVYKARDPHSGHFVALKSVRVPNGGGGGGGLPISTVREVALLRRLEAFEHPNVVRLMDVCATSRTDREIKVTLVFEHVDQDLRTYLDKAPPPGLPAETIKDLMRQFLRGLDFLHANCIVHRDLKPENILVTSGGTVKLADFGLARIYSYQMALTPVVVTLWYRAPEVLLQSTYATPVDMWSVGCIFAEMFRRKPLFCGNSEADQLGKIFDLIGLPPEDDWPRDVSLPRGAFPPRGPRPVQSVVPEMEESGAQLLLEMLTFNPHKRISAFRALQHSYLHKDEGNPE
Sequence of Cyclin-dependent kinase 4/G1/S-specific cyclin-D1 (P24385 whole entry, further chain): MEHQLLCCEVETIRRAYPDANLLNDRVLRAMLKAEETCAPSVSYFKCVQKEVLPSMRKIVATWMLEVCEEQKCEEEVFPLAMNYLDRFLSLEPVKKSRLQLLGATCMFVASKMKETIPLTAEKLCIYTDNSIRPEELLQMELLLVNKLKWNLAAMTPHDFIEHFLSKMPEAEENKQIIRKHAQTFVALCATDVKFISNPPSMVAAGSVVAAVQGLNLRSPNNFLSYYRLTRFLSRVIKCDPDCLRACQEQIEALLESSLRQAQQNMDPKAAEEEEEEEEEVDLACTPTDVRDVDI

Consider `CCN(CC)CCOc1cc(F)c(C(=O)c2c(N)nc3ccc(C(=O)c4c(Cl)cccc4Cl)cn23)c(F)c1` [6-[(2,6-dichlorophenyl)carbonyl]-3-({4-[2-(diethylamino)ethoxy]-2,6-difluorophenyl}carbonyl)imidazo[1,2-a]pyridin-2-amine], for which, in assay [1] (25 °C), half-maximal inhibition (IC50) was put at 984 nM.

Take `N#C/C=C(\c1ccc2nc(N)c(C(=O)c3c(F)cccc3F)n2c1)c1c(F)cccc1F` [(2E)-3-{2-amino-3-[(2,6-difluorophenyl)carbonyl]imidazo[1,2-a]pyridin-6-yl}-3-(2,6-difluorophenyl)prop-2-enenitrile]: the IC50 – broadly, the concentration at which inhibition is half-maximal – in assay [1] (pH 7, 22 °C) stood at 160 nM; in assay [2], 1550 nM; in assay [3], 53 nM.

`N#C/C=C(/c1ccc2nc(N)c(C(=O)c3c(F)cccc3F)n2c1)c1c(F)cccc1F` [(2Z)-3-{2-amino-3-[(2,6-difluorophenyl)carbonyl]imidazo[1,2-a]pyridin-6-yl}-3-(2,6-difluorophenyl)prop-2-enenitrile] showed an IC50 in assay [1] (25 °C) of 896 nM.
